Source: ChEMBL document CHEMBL1268905, “3D-QSAR and docking studies on pyrazolo[4,3-h]qinazoline-3-carboxamides as cyclin-dependent kinase 2 (CDK2) inhibitors” (Bioorg Med Chem Lett, 2010)

Target: Cyclin-dependent kinase 2/cyclin A (Homo sapiens, UniProt P24941)
Assay: Inhibition of CDK2/cyclin A
Type: protein-complex assay

Row | IC50 [nM] | Compound
1 | 21 | Cn1cc(C(N)=O)c2c1-c1nc(NCc3cccnc3)ncc1CC2
2 | 57.9 | COc1ccc(CNc2ncc3c(n2)-c2c(c(C(N)=O)cn2C)CC3)cc1
3 | 1050 | Cn1cc(C(=O)NCc2ccccc2)c2c1-c1nc(Nc3ccccc3)ncc1CC2
4 | 83 | CNC(=O)c1cn(C)c2c1C(C)(C)Cc1cnc(Nc3cccc(CN(C)C)c3)nc1-2
5 | 19 | Cn1cc(C(N)=O)c2c1-c1nc(NCCO)ncc1CC2
6 | 1370 | Cn1cc(C(=O)N(O)Cc2ccccc2)c2c1-c1nc(NC3CCCC3)ncc1CC2
7 | 74 | Cn1cc(C(=O)NCCO)c2c1-c1nc(Nc3ccccc3)ncc1CC2
8 | 21 | Cn1cc(C(N)=O)c2c1-c1nc(NCc3ccncc3)ncc1CC2
9 | 20 | NC(=O)c1cn(-c2ccccc2)c2c1CCc1cnc(NC3CCCC3)nc1-2
10 | 80.9 | Cn1cc(C(N)=O)c2c1-c1nc(NCc3ccc(Br)cc3)ncc1CC2
11 | 86.9 | Cn1cc(C(N)=O)c2c1-c1nc(NCc3ccccn3)ncc1CC2
12 | 3 | Cn1cc(C(N)=O)c2c1-c1nc(NC3CCN(C(=O)c4ccccc4)CC3)ncc1CC2
13 | 52 | NC(=O)c1cn(-c2ccccn2)c2c1CCc1cnc(NC3CCCC3)nc1-2
14 | 4 | Cn1cc(C(N)=O)c2c1-c1nc(NC3CCN(S(=O)(=O)c4ccccc4)CC3)ncc1CC2
15 | 209 | Cn1cc(C(N)=O)c2c1-c1nc(NCCN3CCOCC3)ncc1CC2
16 | 38 | Cn1cc(C(N)=O)c2c1-c1nc(NCc3ccc(S(C)(=O)=O)cc3)ncc1CC2
17 | 23 | NC(=O)c1cn(Cc2ccccc2)c2c1CCc1cnc(NC3CCCC3)nc1-2
18 | 1 | Cn1cc(C(N)=O)c2c1-c1nc(NC3CCN(S(C)(=O)=O)CC3)ncc1CC2
19 | 17 | CN1CCN(c2ccc(CNc3ncc4c(n3)-c3c(c(C(N)=O)cn3C)CC4)cc2)CC1
20 | 51.1 | Cn1cc(C(N)=O)c2c1-c1nc(NCc3ccccc3)ncc1CC2
21 | 1 | CN1CCN(c2cccc(Nc3ncc4c(n3)-c3c(c(C(N)=O)cn3C)CC4)c2)CC1
22 | 6 | COc1ccc(-n2cc(C(N)=O)c3c2-c2nc(NC4CCCC4)ncc2CC3)cc1
23 | 1 | CCOC(=O)N1CCC(Nc2ncc3c(n2)-c2c(c(C(N)=O)cn2C)CC3)CC1
24 | 149 | CCN1CCC(Nc2ncc3c(n2)-c2c(c(C(N)=O)cn2C)CC3)CC1
25 | 2 | CN1CCN(c2ccc(Nc3ncc4c(n3)-c3c(c(C(N)=O)cn3C)CC4)cc2)CC1
26 | 14 | Cn1cc(C(N)=O)c2c1-c1nc(Nc3ccc(N4CCOCC4)cc3)ncc1CC2
27 | 13 | CC(=O)Nc1ccc(CNc2ncc3c(n2)-c2c(c(C(N)=O)cn2C)CC3)cc1
28 | 24 | Cn1cc(C(N)=O)c2c1-c1nc(Nc3ccccc3)ncc1CC2(C)C
29 | 65.9 | COc1cccc(CNc2ncc3c(n2)-c2c(c(C(N)=O)cn2C)CC3)c1
30 | 104 | CN1CCN(c2cccc(CNc3ncc4c(n3)-c3c(c(C(N)=O)cn3C)CC4)c2)CC1

Second part, the molecule before the results:

Row | Compound | IC50 [nM]
31 | CNC(=O)c1cn(C)c2c1C(C)(C)Cc1cnc(Nc3ccc(CN4CCOCC4)cc3)nc1-2 | 36
32 | CNC(=O)c1cn(C)c2c1CCc1cnc(NC3CCCC3)nc1-2 | 97.1
33 | CNC(=O)c1cn(C)c2c1C(C)(C)Cc1cnc(Nc3cccc(OC4CCN(C)CC4)c3)nc1-2 | 47
34 | CC(=O)N1CCC(n2cc(C(N)=O)c3c2-c2nc(NC4CCCC4)ncc2CC3)CC1 | 7
35 | NC(=O)c1cn(CCO)c2c1CCc1cnc(NC3CCCC3)nc1-2 | 8
36 | CNC(=O)c1cn(C)c2c1C(C)(C)Cc1cnc(Nc3cccc(N(C)C)c3)nc1-2 | 220
37 | CN1CCN(C(=O)N2CCC(Nc3ncc4c(n3)-c3c(c(C(N)=O)cn3C)CC4)CC2)CC1 | 12
38 | CNC(=O)c1cn(C)c2c1C(C)(C)Cc1cnc(Nc3cccc(N4CCOCC4)c3)nc1-2 | 248
39 | CNC(=O)c1cn(C)c2c1CCc1cnc(NC3CCN(C(=O)N4CCN(C)CC4)CC3)nc1-2 | 1120
40 | CNC(=O)c1cn(C)c2c1C(C)(C)Cc1cnc(Nc3ccc(OC4CCN(C)CC4)cc3)nc1-2 | 29
41 | CNC(=O)c1cn(C)c2c1C(C)(C)Cc1cnc(Nc3ccc(CN4CCN(C)CC4)cc3)nc1-2 | 55
42 | CNC(=O)c1cn(C)c2c1C(C)(C)Cc1cnc(Nc3cccc(CN4CCOCC4)c3)nc1-2 | 160
43 | CNC(=O)c1cn(C)c2c1CCc1cnc(NC3CCN(C)CC3)nc1-2 | 4580
44 | NC(=O)c1cn(-c2ccc(S(N)(=O)=O)cc2)c2c1CCc1cnc(NC3CCCC3)nc1-2 | 5
45 | CNC(=O)c1cn(C)c2c1C(C)(C)Cc1cnc(Nc3ccc(N(C)C)cc3)nc1-2 | 59
46 | CC(CN(C)C)NC(=O)c1cn(C)c2c1CCc1cnc(NC3CCCC3)nc1-2 (centres undefined) | 1760
47 | CNC(=O)c1cn(C)c2c1C(C)(C)Cc1cnc(Nc3cccc(CN4CCN(C)CC4)c3)nc1-2 | 59
48 | CNC(=O)c1cn(C)c2c1C(C)(C)Cc1cnc(Nc3ccc(N4CCOCC4)cc3)nc1-2 | 137
49 | CNC(=O)c1cn(C)c2c1C(C)(C)Cc1cnc(Nc3ccc(CN(C)C)cc3)nc1-2 | 35
50 | CNC(=O)c1cn(C)c2c1CCc1cnc(NC3CCN(C(=O)c4ccccc4)CC3)nc1-2 | 25
51 | CNC(=O)c1cn(C)c2c1CCc1cnc(NC3CCN(C(C)=O)CC3)nc1-2 | 32
52 | CNC(=O)c1cn(C2CCN(C)CC2)c2c1CCc1cnc(NC3CCCC3)nc1-2 | 59
53 | CNC(=O)c1cn(C)c2c1C(C)(C)Cc1cnc(Nc3cccc(N4CCN(C)CC4)c3)nc1-2 | 31
54 | CN1CCC(n2cc(C(N)=O)c3c2-c2nc(NC4CCCC4)ncc2CC3)CC1 | 6
55 | NC(=O)c1cn(CC(F)(F)F)c2c1CCc1cnc(NC3CCCC3)nc1-2 | 5
56 | CN(O)C(=O)c1cn(C)c2c1CCc1cnc(NC3CCCC3)nc1-2 | 175
57 | CNC(=O)c1cn(C)c2c1CCc1cnc(NC3CCN(S(=O)(=O)c4ccccc4)CC3)nc1-2 | 5
58 | CN1CCN(c2ccc(Nc3ncc4c(n3)-c3c(c(C(N)=O)cn3C)C(C)(C)C4)cc2)CC1 | 17
59 | CCOC(=O)N1CCC(Nc2ncc3c(n2)-c2c(c(C(=O)NC)cn2C)CC3)CC1 | 57.9
